Patent publication US20170073445A1, “PHOTOPOLYMERIZABLE COMPOSITION, PHOTOPOLYMERIZABLE INK, COMPOSITION CONTAINER, IMAGE OR CURED PRODUCT FORMING METHOD, IMAGE OR CURED PRODUCT FORMING DEVICE, AND IMAGE OF CURED PRODUCT” (priority 2014, published 2017)

Legend:
[1] = Viscosity by cone-plate rotor viscometer (25° C. or 60° C.); type: physicochemical; details: monomer per se
Protocol: Note that, a viscosity of the low viscous monofunctional monomer per se is preferably 3 mPa·s or less at 25° C., more preferably about 1 mPa·s or less at 25° C. The viscosity can be measured by means of a cone-plate rotor viscometer, VISCOMETER TV-22, manufactured by Toki Sangyo Co., Ltd., using a corn rotor (1° 34′×R24) at the rotational speed of 50 rpm, with setting the temperature of constant-temperature circulating water to 25° C.
The viscosity is measured by means of a cone-plate rotor viscometer, VISCOMETER TV-22, manufactured by Toki Sangyo Co., Ltd., using a corn rotor (1° 34′×R24) at the rotational speed of 50 rpm, with setting the temperature of constant-temperature circulating water to 25° C. or 60° C. As for the adjustment of the temperature of the circulating water, VISCOMATE VM-150III is used. […]
(A): t-butylmethacrylate, “Acryester TB” manufactured by MITSUBISHI RAYON CO., LTD. (negative), evaluated with the literature (test method: maximization method, viscosity at 25° C.: 0.9 mPa·s). The viscosity was measured by means of a cone-plate rotor viscometer, VISCOMETER TV-22, manufactured by Toki Sangyo Co., Ltd., using a corn rotor (1° 34′×R24) at the rotational speed of 50 rpm, with setting the temperature of constant-temperature circulating water to 25° C.

[2] = tested on: female mice; assay: Skin sensitization test, local lymph node assay (LLNA), SI value; type: in vivo; details: test substance 50.0 w/v % in acetone:olive oil 4:1, applied to both auricles once a day for three days
Source text: (1) A compound having a Stimulation Index (SI value) of less than 3, where the Stimulation Index indicates the level of sensitization as measured by a skin sensitization test based on the LLNA (Local Lymph Node Assay).
Regarding the above (1), the compound having a SI value of less than 3 is considered as being negative for skin sensitization as described in literatures, for example, “Functional Material” (Kino Zairyou) September, 2005, Vol. 25, No. 9, p. 55. The lower Si value means lower skin sensitization. In the present invention, therefore, a photopolymerizable monomer having lower SI value is preferably used. The SI value is preferably less than 3, more preferably 2 or less, and even more preferably 1.6 or less.
According to the skin sensitization test of local lymph node assay (LLNA), the SI value was measured in the following manner. […]
Based on the body weights measured 2 days before the initiation of sensitization, they were categorized into 2 groups (4 mice/group) by the body weight stratified random sampling method so that the body weight of each individual was within plus or minus 20%. […]
About 24 hours after the administration of BrdU, the used animals were allowed to undergo euthanasia, and their auricular lymph nodes were sampled. […] Also, the average of the weights of the auricular lymph nodes and the standard error thereof were calculated for each group. […]

[3] = in vivo; cited from earlier work

C=C(C)C(=O)OCCCCC [n-pentyl methacrylate]
viscosity at 25° C. [1]: 1 mPa·s

tricyclodecane dimethanol dimethacrylate
SI value (Stimulation Index) in the LLNA test [2]: 1.3

C=C(C)C(=O)OC(C)(C)C [t-butylmethacrylate]
viscosity at 25° C. [1]: 0.9 mPa·s

C=C(C)C(=O)OCC(CO)OC(=O)C(=C)C (centres unmarked) [glycerol dimethacrylate]
SI value (Stimulation Index) in the LLNA test [2]: 1.2

O=C(c1ccccc1)C1(O)CCCCC1 [1-hydroxy-cyclohexylphenylketone]
Skin sensitization, evaluated with MSDS [3]: no
